This is an account of results in US9862679B2, “Potent and selective inhibitors of monoamine transporters; method of making; and use thereof” (priority 2013, dated 2018).

SMILES strings stand for the structures.

A short description of data set [1]: Phase II (glucuronidation, UDPGA) metabolic stability in mouse liver microsomes. It is filed as in vitro ADME. As to the method:
(§1) Phase I and phase II metabolic stability assay for was conducted in mouse liver microsomes. For phase I metabolism, the reaction was carried out with 100 mM potassium phosphate buffer, pH 7.4, in the presence of NADPH regenerating system (1.3 mM NADPH, 3.3 mM glucose 6-phosphate, 3.3 mM MgCl2, 0.4 U/mL glucose-6-phosphate dehydrogenase, 50 μM sodium citrate). Reactions in duplicate were initiated by addition of the liver microsomes to the incubation mixture (compound final concentration was 10 μM; 0.5 mg/mL microsomes). For phase II glucuronidation reaction compound was added to TRIS-HCl buffer (50 mM, pH 7.5) with microsomes (0.5 mg/mL), along with MgCl2 (8 mM), and alamethicin (25 μg/mL) and pre-incubated at 37° C. The reaction was initiated (in duplicate) with UDPGA at a final concentration of 2 mM. Negative controls in the absence NADPH and UDPGA were carried for both phase I and phase II metabolism respectively, to determine the specific cofactor free degradation. […] At predetermined times (0, 15, 30 and 60 min) aliquots of the mixture were removed and the reaction quenched by addition of two times the volume of ice cold acetonitrile spiked with the internal standard. Compound disappearance was monitored over time using a liquid chromatography and tandem mass spectrometry (LC/MS/MS) method.
(§2) Compounds were separated on an Agilent 1290 UPLC system with a c18 column using a gradient run of 55:45-5:95 water:acetonitrile over 3.2 minutes and detected on an Agilent 6520 QTOF mass spectrometer.

A short description of data set [2]: Phase I metabolic stability in mouse liver microsomes (NADPH). Type of data set: in vitro ADME. To be noted: 10 μM. As to the method: as §1, §2
Data set [3] can be described thus: Plasma pharmacokinetics in mice, 10 mg/kg i.v. and p.o. As to the method: (§3) Plasma was harvested from blood by centrifugation. Additionally at two selected time points (i.e. 30 min and 2 h) brains were collected following both oral and IV dosing. Samples were extracted from plasma by a single one-step protein precipitation method (as described in bioanalysis section below). For brain tissue, whole brains were weighed and homogenized in two times the volume of acetonitrile, followed by vortexing and centrifugation. Once extracted, the samples were analyzed via LC/MS/MS (as described in bioanalysis section below). Non-compartmental-analysis module in WinNonlin™ (version 5.3) was used to assess pharmacokinetic parameters including maximal concentration (Cmax), time to Cmax (Tmax), area under the curve (AUClast), area extrapolated to infinity (AUC0-∞), terminal disposition rate constant (ke), and terminal half-life (t½).
(§4) Briefly, plasma samples were thawed on ice prior to extraction. Samples (50 μL) were extracted in 300 μL acetonitrile containing 1000 nM losartan as internal standard. For brain, 50 μL of the supernatant from homogenized tissue was extracted with 100 μL acetonitrile containing 1000 nM losartan as internal standard. Extracts were centrifuged at 16000×g at 4° C. for 10 minutes. Supernatants were transferred to a new siliconized tube and dried under N2 at 45° C. for 30 min. Samples were reconstituted with 100 μL of 30% acetonitrile, vortexed and centrifuged. Supernatants (95 μL) were transferred to a 250 μL polypropylene autosampler vials sealed with a Teflon cap and a volume of 10 μL was injected onto the ultra-performance liquid chromatography (UPLC) instrument for quantitative analysis using a temperature-controlled autosampler operating at 10° C.
(§5) The instrument was controlled by the Xcalibur software 2.3 (Thermo Scientific). Samples were introduced to the interface through Turbo Ion Spray with the temperature setting at 350° C.
(§6) Chromatographic analysis was performed using an Accela™ ultra high-performance system consisting of an analytical pump, and an autosampler coupled with TSQ Vantage mass spectrometer (Thermo Fisher Scientific Inc., Waltham Mass.).

The subject of another data set is Swiss Webster mice. The experiment in a line: Mouse locomotor activity test. To be noted: up to 30 mg/kg, versus cocaine.
A short description of data set [4]: Metabolic stability in mouse plasma. Type of data set: in vitro ADME. To be noted: for Metabolic stability, Plasma (% remaining): mouse plasma, 10 μM. As to the method:
The metabolic stability was evaluated using mouse plasma and mouse liver microsomes.

Data set [5] in a line: Negative control: mouse liver microsomes without cofactors. It is filed as in vitro ADME. To be noted: for Metabolic stability, Negative Control (% remaining): microsomes without cofactors. As to the method: as §1, §2
Data set [6] in a line: Brain concentrations in mice after IV and PO dosing at 10 mg/kg. The settings on record: for concentration at 0.5 h / concentration at 2 h: male, CD1, mouse, in vivo, 10 mg/kg. The method, then: as §3, §4, §5, §6
Setting [7] is: male, CD1, mouse, in vivo, iv, 10 mg/kg.
Setting [8] is: male, CD1, mouse, in vivo, po, 10 mg/kg.

Take `Cc1cc(=O)oc2cc(O)ccc12` [4 Methyl Umbelliferone, 4-methylumbelliferone, reference compound]: the results for the “Metabolic stability, Phase II (% remaining)” value in data set [1] (0 min) and in data set [1] (60 min) were 100% and 3.10%, respectively.

Take `C[C@]12CC[C@H]3[C@@H](CCC4=CC(=O)CC[C@@]43C)[C@@H]1CC[C@@H]2O` [Testosterone, reference compound]: the “Metabolic stability, Phase I (% remaining)” value in data set [2] (0 min) was found to be 100%; in data set [2] (60 min), 0%.

Molecule `Fc1ccc(C(SCCNCCCc2ccccc2)c2ccc(F)cc2)cc1` [Compound 4g, N-(2-((bis(4-fluorophenyl)methyl)thio)ethyl)-3-phenylpropan-1-amine] came in with a bioavailability in data set [3] (male, CD1, mouse, in vivo, 10 mg/kg, F % (absolute bioavailability), mouse, 10 mg/kg P.O. versus I.V.) of around 10%. Also, the values for the AUC(0-inf) in data set [3] (setting [7]) and in data set [3] (setting [8]) were 2040 µg·h/mL and 203 µg·h/mL, respectively. Moreover, the figures for the AUC(0-t) in data set [3] (setting [7]) and in data set [3] (setting [8]) were 1.96 µg·h/mL and 0.155 µg·h/mL, respectively. Besides, the Tmax in data set [3] (setting [7]) was 4.8 min; in data set [3] (setting [8]), 30 min. Also, in data set [3] (mouse plasma, 10 mg/kg I.V.), the Ke turned out to be 0.6952. Further, the “Metabolic stability, Phase I (% remaining)” value in data set [2] (0 min) is recorded as 100%; in data set [2] (30 min), 95%; in data set [2] (60 min), 77%. Further, the “locomotor stimulation (ambulatory distance)” value in the data set on Swiss Webster mice is reported as “does not produce locomotor stimulation”. Further, the “Metabolic stability, Plasma (% remaining)” value in data set [4] (0 min) worked out at 100%; in data set [4] (15 min) it was 100%; in data set [4] (30 min), 99%; in data set [4] (60 min), 103%. In addition, in data set [4] (over a period of 60 minutes), the “stability in mouse plasma” value was “stable”. The “Metabolic stability, Negative Control (% remaining)” value in data set [5] (0 min) is 100%; in data set [5] (15 min), 104%; in data set [5] (30 min) it was 97%; in data set [5] (60 min), 119%. For the same molecule, the “metabolism in microsomes without the cofactors” value in data set [5] (mouse liver microsomes, no NADPH/UDPGA) is given as “No metabolism was observed”. The concentration at 0.5 h amounted to 4780 ng/g in data set [6] (iv) and 369 ng/g in data set [6] (po). Also, the concentration at 2 h was determined as 14100 ng/g in data set [6] (iv) and 223 ng/g in data set [6] (po). In addition, the brain penetrability entry in data set [6] (mouse, following both p.o. and i.v. dosing) is “excellent brain penetrability”. The “Metabolic stability, Phase II (% remaining)” value in data set [1] (0 min) came to 100%; in data set [1] (15 min), 90%; in data set [1] (30 min), 77%; in data set [1] (60 min) it was 50%.
